Patent publication US4396607A, “Muramyl peptide derivatives and pharmaceutical compositions” (priority 1978, dated 1983)

Legend:
Klebsiella pneumoniae = test: Anti-infectious activity with respect to Klebsiella; format: in vivo; settings: mice, i.v. treatment 24h before 2 × 10^4 bacteria i.m.
Method: The survival of groups of inoculated mice under the above conditions and treated by means of the products according to the invention was followed.
The infecting dose was 2.10^4 Klebsiella; it was administered by the intramuscular route.
The administration of the tested product was carried out by the intravenous route in 0.2 ml of apyrogenic physiological solution, the controls receiving the solution alone. It was carried out 24 hours before the inoculation.
The percentage protection indicated is a difference of the percentages of survivors of the treated group with respect to the control group.

ovalbumin [1] = test: Liposome forms: adjuvant character in guinea pigs, ovalbumin in aqueous solution; format: in vivo, Hartley male guinea pigs; settings: ovalbumin 1 mg in foot pad
Method: The antigen was ovalbumin injected in aqueous solution in the foot pad of Hartley male guinea pigs at a volume of 0.1 ml in each rear paw, at the dose of 1 mg per guinea pig. The adjuvant preparations were injected simultaneously at the indicated doses. After three weeks, the animals received by the dermal route, in a volume of 0.1 ml, 0.025 mg of antigen. The diameter of the cutaneous reactions was measured after 48 hours. The animals were bled and the titers measured.

[2] = test system: bovine serum albumin (BSA); test: Adjuvant character in the aqueous phase (antibody titer by passive hemagglutination); format: in vivo, Swiss mice; settings: mice, 0.5 mg BSA with 0.1 mg tested substance SC in isotonic saline, booster day 30, titer at the 36th day
Method: (§1) Groups of 8 Swiss mice aged two months received, by sub-cutaneous injection (SC), 0.5 mg of antigen constituted by bovine serum albumin (BSA) with 0.1 mg or without the tested substance in an isotonic saline solution. This high dose of antigen, because it is situated at the limit of the paralyzing dose with respect to the immunitary response, results, for this reason, in a weak or zero response to the antigen only in the controls: It constitutes therefore a severe criterien to establish the activity of an adjuvant substance. Thirty days later, the mice received, by the same administrative route, a booster containing 0.1 mg of the same antigen.
(§2) The antibody level was determined, six days after the booster, by passive hemagglutination using sheep's red blood corpuscles treated with formalin and covered with the antigen studied according to the method described by A. A. HIRATA and M. W. BRANDISS (J. Immunol., 100, 641-648, 1968).
The antibody titer, represented by the maximum serum dilution agglutinating a given amount of sheep corpuscles, reaches a maximum at the 36th day and is established in the following manner: […]

[3] = Toxicity (lethal dose 50) by parenteral administration in the adrenalectomised mouse; format: in vivo, mice
Method: The toxicity of the products according to the invention was investigated by parenteral administration in mice. It was observed that the toxic doses were of an order of magnitude very much higher than that of the doses at which these products manifest their activity. Thus the lethal dose 50 of the products according to the invention tested was higher than 5 mg/kg of animal in the adrenalectomised mouse, whose sensitivity to endotoxins is well-known.

Ovalbumin [4] = test: Adjuvant character in emulsion (delayed hypersensitivity and antibodies); format: in vivo, Hartley guinea pigs; settings: guinea pigs, 50 μg in AlF emulsion with 1 mg ovalbumin; for Log2 of the hemagglutinating titer: serum day 21; for HSR (diameter of the delayed hypersensitivity reaction): skin test day 18, read 48 hours later
Method: The tests were carried out on batches of 6 male Hartley guinea pigs of 350 g. The administration was done by intradermal injection into the plantar pad of each of the rear paws. Ovalbumin (constituting the antigen) in the amount of 1 mg is prepared in 0.1 ml of an emulsion of saline isotonic solution, in any oily phase constituted either by the Freund imcomplete adjuvant (FIA), or by the complete adjuvant (FCA) formed by the FIA to which is added 0.1 mg of whole Mycobacterium smegmatis cells. The compound according to the invention was administered in the amount of 0.05 mg added in the emulsion containing the FIA.
Eighteen days after this immunization, possible delayed hypersensitivity reactions to the antigen were sought by injecting by the intradermal route 0.01 mg of ovalbumin in the side of the animals, and 48 hours later, the reaction of the point of injection was observed. The diameter in millimeters of the reaction thus caused was measured.
Twenty-one days after the injection, the animals were bled. […]

Listeria monocytogenes = test: Liposome forms: anti-Listeria activity; format: in vivo; settings: mice, 1.10^3 Listeria i.v.
Method: The tests were carried out under the conditions of (5), using a dose of Listeria monocytogen, known to cause typically a cellular type infection.
The treatment of the mice and the inoculation were carried out by the intravenous route. The products were injected in the liposome form at the indicated doses. The controls only received isotonic solution.
The dose of Listeria administered was, in all the tests, 1.10^3 cells.
The tests whose results are given below were carried out by varying the interval of time separating the treatment of inoculation from the Listeria monocytogenes (either 1, either 4, or 8 days). The number of surviving mice at the 5th and at the 10th day following inoculation was followed, and the percentage protection determined as for the preceding tests.

BSA = test: Liposome forms: adjuvant character in mice, BSA as antigen; format: in vivo; settings: 10 μg
Method: as §1, §2
The series of tests was carried out on mice under the same conditions as indicated in (3)(a), using BSA as antigen.

Klebsiella = test: Liposome forms: anti-Klebsiella activity (intravenous infection); format: in vivo; settings: mice, i.v. treatment at D - 1, 1.5.10^3 Klebsiella i.v.
Method: Under the previously described conditions, with the exception of the infection produced by the intravenous injection of 1.5.10^3 Klebsiella, the tests are renewed to determine the anti-infectious action. The administrations in the form of solution and of liposome were prepared.

[5] = test system: Limulus amoebocyte lysate; test: Limulus test (endotoxic type activity); settings: gel formation after 20 minutes at 37° C.
Method: For this purpose, 0.1 ml of the Limulus amoebocyte lysate preparation (marketed by the MALLINCKRODT Company, at St. LOUIS, U.S.A.) was mixed with an equal volume of the tested product at various concentrations in solution in apyrogenic distilled water. The vessels used were also made apyrogenic by dry heating in the oven, at 180° C., for 2 hours.
After incubating the mixture for 20 minutes at 37° C. in tubes, the formation of gel characteristics of the presence of endotoxin was estimated.

[6] = Liposome forms: toxicity in the adrenalectomized mouse; format: in vivo; settings: groups of six mice, 100 μg
Method: Pharmacological tests similar to the preceding ones were reproduced with MDP, MDP-L-Ala-eicosyl-ester and MDP-L-Ala-glyceryl-mycolate comparing the effects of administration in liposome form with those obtained for products in solution and with liposomes without muramyl-peptide.
The liposomes were prepared in the manner described above.
The products, the doses administered and their effect on the mortality of groups of six mice are indicated below.

ovalbumin [7] = test: Liposome forms: adjuvant character in Wistar rats, ovalbumin; format: in vivo; settings: ovalbumin 0.5 mg s.c., 200 μg
Method: The antigen was ovalbumin injected by the subcutaneous route in male Wistar rats in a volume of 0.5 ml at the dose of 0.5 mg. The adjuvant preparations were injected simultaneously, at the dose indicated. At day 20, the animals received a booster of 0.5 mg of antigen alone by the same route. The serums were drawn and tested under the same conditions as in the mouse with the appropriate antigen.

[8] = i.v. treatment at D - 1, dose 100 μg
[9] = i.v. treatment at D - 4, dose 100 μg
[10] = i.v. treatment at D - 8, dose 100 μg

Compound | % of protection (Klebsiella pneumoniae; dose per mouse 10) [%] | Number of survivors at day 3 (Klebsiella pneumoniae; dose per mouse 10) | Number of survivors at day 5 (Klebsiella pneumoniae; dose per mouse 10) | Number of survivors at day 8 (Klebsiella pneumoniae; dose per mouse 10) | % of protection (Klebsiella pneumoniae; dose per mouse 100) [%] | Number of survivors at day 3 (Klebsiella pneumoniae; dose per mouse 100) | Number of survivors at day 5 (Klebsiella pneumoniae; dose per mouse 100) | Number of survivors at day 8 (Klebsiella pneumoniae; dose per mouse 100) | Log2 hemagglutinating titer [2] | lethal dose 50 [3] | Log2 of the hemagglutinating titer (Ovalbumin [4]) | HSR (diameter of the delayed hypersensitivity reaction) (Ovalbumin [4]) [millimeters] | % of protection (Listeria monocytogenes; [8]) [%] | Number of survivors D + 5 (Listeria monocytogenes; [8]) | Number of survivors D + 10 (Listeria monocytogenes; [8]) | % of protection (Listeria monocytogenes; [9]) [%] | Number of survivors D + 5 (Listeria monocytogenes; [9]) | Number of survivors D + 10 (Listeria monocytogenes; [9]) | % of protection (Listeria monocytogenes; [10]) [%] | Number of survivors D + 5 (Listeria monocytogenes; [10]) | further results
CCCCCCCCCCCCCCCCCCCCOC(=O)[C@H](C)NC(=O)CC[C@@H](NC(=O)[C@H](C)NC(=O)[C@@H](C)O[C@H]1[C@H](O)[C@@H](CO)OC(O)[C@@H]1NC(C)=O)C(N)=O (stereo partly drawn) [MDP--L--Ala--eicosyl--ester, eicosyl ester of N-acetyl-muramyl-L-alanyl-D-isoglutamine-L-alanine] | 46 | 18 | 14 | 14 | 70 | 23 | 23 | 20 | 7.11 ± 2.03 | higher than 5 mg/kg | 11.25 ± 1.14 | 6 ± 4 | 0 | 3 | 0 | 0 | 4 | 4 | 0 | 2 | Log2 of the hemagglutinating titer (ovalbumin [1]; 200 μg): 7.33 ± 1.51; HSR (diameter of the cutaneous reactions; in parentheses number of animals showing the reaction) (ovalbumin [1]; 200 μg, read after 48 hours): 0; Number of survivors D + 10 (Listeria monocytogenes; [10]): 2; Log2 of the hemagglutinating titer (BSA): 3.64 ± 1.15; % of protection (Klebsiella; 1 μg): 25%; Number of survivors at D + 3 (Klebsiella; 1 μg): 4; Number of survivors at D + 5 (Klebsiella; 1 μg): 4; Number of survivors at D + 8 (Klebsiella; 1 μg): 4; % of protection (Klebsiella; 10 μg): 31%; Number of survivors at D + 3 (Klebsiella; 10 μg): 13; Number of survivors at D + 5 (Klebsiella; 10 μg): 9; Number of survivors at D + 8 (Klebsiella; 10 μg): 9; % of protection (Klebsiella; 100 μg): 63%; Number of survivors at D + 3 (Klebsiella; 100 μg): 14; Number of survivors at D + 5 (Klebsiella; 100 μg): 14; Number of survivors at D + 8 (Klebsiella; 100 μg): 14; Limulus test result (concentration of the tested product) [5]: 10 µg/mL; Number of dead mice [6]: 0/6
N-acetyl-muramyl-L-alanyl-D-isoglutaminyl-L-alanylglyceryl-mycolate [MDP--L--Ala--glyceryl--mycolate] | 33 | 5 | 4 | 4 | 79 | 23 | 23 | 23 | 7.47 ± 1.17 | higher than 5 mg/kg | 12.77 ± 0.83 | 21± 3 | 0 | 3 | 2 | 0 | 1 | 0 | 0 | 1 | HSR (diameter of the cutaneous reactions) (ovalbumin [1]; dose not given): 0; Log2 of the hemagglutinating titer (ovalbumin [1]; dose not given): 8.64 ± 1.83; Log2 of the hemagglutinating titer (ovalbumin [7]): 7.64 ± 1.90; Number of survivors D + 10 (Listeria monocytogenes; [10]): 0; Log2 of the hemagglutinating titer (BSA): 2.07 ± 1.13; % of protection (Klebsiella; 1 μg): 0%; Number of survivors at D + 3 (Klebsiella; 1 μg): 2; Number of survivors at D + 5 (Klebsiella; 1 μg): 2; Number of survivors at D + 8 (Klebsiella; 1 μg): 2; % of protection (Klebsiella; 10 μg): 25%; Number of survivors at D + 3 (Klebsiella; 10 μg): 9; Number of survivors at D + 5 (Klebsiella; 10 μg): 8; Number of survivors at D + 8 (Klebsiella; 10 μg): 8; % of protection (Klebsiella; 100 μg): 63%; Number of survivors at D + 3 (Klebsiella; 100 μg): 8; Number of survivors at D + 5 (Klebsiella; 100 μg): 7; Number of survivors at D + 8 (Klebsiella; 100 μg): 7; Number of dead mice [6]: 0/6
